Experimental data from ChEMBL document CHEMBL2177026, “Acyl guanidine inhibitors of β-secretase (BACE-1): optimization of a micromolar hit to a nanomolar lead via iterative solid- and solution-phase library synthesis” (J Med Chem, 2012).
Active and inactive are the calls of the source. The calls are words filed in the database; no cut-off is given here.

How the values were obtained:
[1] = biological target: T1, Beta-secretase 1 (Homo sapiens, UniProt P56817); assay: Displacement of [3H]BMS-599240 from BACE1 expressed in HEK293 cells; format: cell-based
T1 sequence (P56817 whole entry): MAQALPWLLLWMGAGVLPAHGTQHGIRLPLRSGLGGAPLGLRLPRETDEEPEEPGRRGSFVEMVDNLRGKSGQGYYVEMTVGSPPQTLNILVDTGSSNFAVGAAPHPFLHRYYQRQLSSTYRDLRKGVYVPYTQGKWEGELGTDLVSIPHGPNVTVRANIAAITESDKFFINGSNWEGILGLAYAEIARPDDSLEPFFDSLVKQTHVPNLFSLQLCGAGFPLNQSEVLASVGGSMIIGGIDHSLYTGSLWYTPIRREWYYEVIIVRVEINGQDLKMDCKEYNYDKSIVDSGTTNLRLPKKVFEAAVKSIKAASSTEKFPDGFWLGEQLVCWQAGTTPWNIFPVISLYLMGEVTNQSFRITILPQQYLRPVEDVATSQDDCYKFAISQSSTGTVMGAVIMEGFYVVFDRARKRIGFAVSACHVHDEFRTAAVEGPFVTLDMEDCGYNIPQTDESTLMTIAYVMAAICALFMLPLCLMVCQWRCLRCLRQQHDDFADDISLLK

[2] = biological target: T1, Beta-secretase 1; assay: Ratio of IC50 for BACE1 in human KBV1 cells expressing APP 751 Swedish mutant in absence of tariquidar to IC50 for BACE1 in human KBV1 cells expressing APP 751 Swedish mutant in presence of tariquidar; format: cell-based
[3] = biological target: T1, Beta-secretase 1; assay: Inhibition of BACE1 in human HEK293 cells expressing APP 695 Swedish mutant assessed as inhibition of amyloid beta (1 to 40) production after overnight incubation by ELISA; format: cell-based
[4] = biological target: T1, Beta-secretase 1; assay: Inhibition of BACE1 in human KBV1 cells expressing APP 751 Swedish mutant assessed as inhibition of amyloid beta (1 to 40) production after overnight incubation by ELISA in presence of tariquidar; format: cell-based
[5] = biological target: T1, Beta-secretase 1; assay: Inhibition of BACE1 in human KBV1 cells expressing APP 751 Swedish mutant assessed as inhibition of amyloid beta (1 to 40) production after overnight incubation by ELISA in absence of tariquidar; format: cell-based
[6] = biological target: T1, Beta-secretase 1; assay: Ratio of IC50 for BACE1 in HEK293 cells expressing APP 695 Swedish mutant to Ki for BACE1; format: cell-based
[7] = Plasma concentration in rat at 40 mg/kg, sc preadministered with ABT measured after 5 hrs by LC/MS/MS analysis; format: ADME, organism-based; set-up: dose 40 mg/kg, route subcutaneous
[8] = tested on: Rattus norvegicus; assay: Antialzheimer activity in rat assessed as amyloid beta (1 to 40) level in CSF at 5 mg/kg, sc measured after 5 hrs by ELISA relative to control; format: functional; settings: route subcutaneous
[9] = Plasma concentration in rat at 5 mg/kg, sc measured after 5 hrs by LC/MS/MS analysis; format: ADME, organism-based; set-up: dose 5 mg/kg, route subcutaneous
[10] = tested on: Rattus norvegicus; assay: Antialzheimer activity in rat assessed as amyloid beta (1 to 40) level in brain at 15 mg/kg, sc measured after 5 hrs by ELISA relative to control; format: functional; settings: route subcutaneous
[11] = tested on: Rattus norvegicus; assay: Antialzheimer activity in rat assessed as amyloid beta (1 to 40) level in CSF at 40 mg/kg, sc preadministered with ABT measured after 5 hrs by ELISA relative to control; format: functional; settings: route subcutaneous
[12] = tested on: Rattus norvegicus; assay: Antialzheimer activity in rat assessed as amyloid beta (1 to 40) level in CSF at 15 mg/kg, sc measured after 5 hrs by ELISA relative to control; format: functional; settings: route subcutaneous
[13] = tested on: Rattus norvegicus; assay: Antialzheimer activity in rat assessed as amyloid beta (1 to 40) level in brain at 40 mg/kg, sc preadministered with ABT measured after 5 hrs by ELISA relative to control; format: functional; settings: route subcutaneous
[14] = Drug uptake in rat CSF at 5 mg/kg, sc measured after 5 hrs by LC/MS/MS analysis; format: ADME, organism-based, Cerebrospinal fluid; set-up: dose 5 mg/kg, route subcutaneous; settings: read-out: Drug uptake
[15] = tested on: Rattus norvegicus; assay: Antialzheimer activity in rat assessed as amyloid beta (1 to 40) level in plasma at 40 mg/kg, sc preadministered with ABT measured after 5 hrs by ELISA relative to control; format: functional; settings: route subcutaneous
[16] = biological target: Cathepsin D (Homo sapiens) (UniProt P07339); assay: Inhibition of cathepsin D by radioligand binding assay
Sequence of Cathepsin D (Homo sapiens) (P07339 65-162 limits assumed): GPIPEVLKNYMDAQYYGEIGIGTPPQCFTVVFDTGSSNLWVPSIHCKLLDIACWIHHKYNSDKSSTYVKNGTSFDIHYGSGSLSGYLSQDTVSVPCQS
Sequence of Cathepsin D (Homo sapiens) (P07339 169-412 limits assumed): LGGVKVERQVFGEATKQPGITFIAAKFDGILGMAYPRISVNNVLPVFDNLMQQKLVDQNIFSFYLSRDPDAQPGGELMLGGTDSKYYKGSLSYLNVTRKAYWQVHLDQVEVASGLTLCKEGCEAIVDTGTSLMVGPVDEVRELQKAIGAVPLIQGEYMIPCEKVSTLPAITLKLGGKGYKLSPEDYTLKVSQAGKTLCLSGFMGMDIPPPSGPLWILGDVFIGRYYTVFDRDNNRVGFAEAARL

[17] = Drug uptake in rat brain at 40 mg/kg, sc preadministered with ABT measured after 5 hrs by LC/MS/MS analysis; format: ADME, organism-based; set-up: dose 40 mg/kg, route subcutaneous; settings: read-out: Drug uptake
[18] = Drug uptake in rat CSF at 40 mg/kg, sc preadministered with ABT measured after 5 hrs by LC/MS/MS analysis; format: ADME, organism-based, Cerebrospinal fluid; set-up: dose 40 mg/kg, route subcutaneous; settings: read-out: Drug uptake
[19] = Drug uptake in rat CSF at 15 mg/kg, sc after 5 hrs by LC/MS/MS analysis; format: ADME, organism-based, Cerebrospinal fluid; set-up: dose 15 mg/kg, route subcutaneous; settings: read-out: Drug uptake
[20] = Drug uptake in rat brain at 5 mg/kg, sc measured after 5 hrs by LC/MS/MS analysis; format: ADME, organism-based; set-up: dose 5 mg/kg, route subcutaneous; settings: read-out: Drug uptake
[21] = Drug uptake in rat brain at 15 mg/kg, sc after 5 hrs by LC/MS/MS analysis; format: ADME, organism-based; set-up: dose 15 mg/kg, route subcutaneous; settings: read-out: Drug uptake
[22] = tested on: Rattus norvegicus; assay: Antialzheimer activity in sc dosed rat assessed as reduction in amyloid beta (1 to 40) level in plasma measured after 5 hrs by ELISA relative to control; format: functional, organism-based
[23] = Inhibition of pepsin by radioligand binding assay
[24] = tested on: Rattus norvegicus; assay: Antialzheimer activity in rat assessed as amyloid beta (1 to 40) level in plasma at 5 mg/kg, sc measured after 5 hrs by ELISA relative to control; format: functional; settings: route subcutaneous
[25] = biological target: T2, Cathepsin E (Homo sapiens) (UniProt P14091); assay: Inhibition of cathepsin E by radioligand binding assay
T2 sequence (whole entry): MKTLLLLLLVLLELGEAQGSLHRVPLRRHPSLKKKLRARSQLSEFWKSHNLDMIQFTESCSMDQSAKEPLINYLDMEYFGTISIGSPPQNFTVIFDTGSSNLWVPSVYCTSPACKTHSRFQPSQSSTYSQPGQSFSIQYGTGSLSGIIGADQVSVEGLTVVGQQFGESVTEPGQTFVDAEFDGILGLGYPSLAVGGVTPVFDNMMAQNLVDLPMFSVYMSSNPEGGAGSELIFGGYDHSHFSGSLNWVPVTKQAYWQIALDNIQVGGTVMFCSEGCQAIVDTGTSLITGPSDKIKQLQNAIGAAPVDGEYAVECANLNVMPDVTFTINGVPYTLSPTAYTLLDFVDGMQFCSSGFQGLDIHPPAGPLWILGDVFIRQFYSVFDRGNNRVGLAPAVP

[26] = biological target: Voltage-gated inwardly rectifying potassium channel KCNH2 (Homo sapiens, UniProt Q12809); assay: Activity at human ERG channel by fluorescence-based thallium flux assay
Sequence of Voltage-gated inwardly rectifying potassium channel KCNH2 (Q12809 whole entry): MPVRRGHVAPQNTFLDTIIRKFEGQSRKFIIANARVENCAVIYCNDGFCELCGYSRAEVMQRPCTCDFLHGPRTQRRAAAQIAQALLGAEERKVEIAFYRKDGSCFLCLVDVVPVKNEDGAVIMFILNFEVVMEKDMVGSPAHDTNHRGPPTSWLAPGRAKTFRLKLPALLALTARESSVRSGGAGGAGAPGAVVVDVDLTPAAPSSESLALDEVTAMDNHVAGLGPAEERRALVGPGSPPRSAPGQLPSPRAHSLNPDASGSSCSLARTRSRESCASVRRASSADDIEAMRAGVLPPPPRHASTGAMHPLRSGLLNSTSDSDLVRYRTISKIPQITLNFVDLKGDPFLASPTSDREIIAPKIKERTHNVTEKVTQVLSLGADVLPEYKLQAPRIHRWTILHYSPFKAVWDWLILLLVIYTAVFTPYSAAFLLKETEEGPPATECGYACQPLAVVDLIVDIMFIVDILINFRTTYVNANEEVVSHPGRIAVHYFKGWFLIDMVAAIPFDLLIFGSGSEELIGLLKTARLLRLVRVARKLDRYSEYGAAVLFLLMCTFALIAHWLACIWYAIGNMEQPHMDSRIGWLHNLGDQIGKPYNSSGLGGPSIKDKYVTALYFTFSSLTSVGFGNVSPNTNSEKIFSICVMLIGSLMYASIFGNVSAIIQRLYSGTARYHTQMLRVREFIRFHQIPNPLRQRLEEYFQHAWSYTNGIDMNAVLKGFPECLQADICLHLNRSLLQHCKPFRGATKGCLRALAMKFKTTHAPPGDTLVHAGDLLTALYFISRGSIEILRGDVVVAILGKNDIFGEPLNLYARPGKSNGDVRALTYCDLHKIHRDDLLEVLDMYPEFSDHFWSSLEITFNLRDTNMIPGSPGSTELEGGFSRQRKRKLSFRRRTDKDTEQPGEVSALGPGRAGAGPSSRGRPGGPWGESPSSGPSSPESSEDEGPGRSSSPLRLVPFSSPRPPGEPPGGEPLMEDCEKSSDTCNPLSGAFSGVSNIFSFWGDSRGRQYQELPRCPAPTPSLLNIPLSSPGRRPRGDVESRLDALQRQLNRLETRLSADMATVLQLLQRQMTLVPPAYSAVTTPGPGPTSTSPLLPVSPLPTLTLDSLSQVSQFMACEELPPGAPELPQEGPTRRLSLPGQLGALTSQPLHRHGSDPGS

[27] = tested on: Rattus norvegicus; assay: Antialzheimer activity in rat assessed as amyloid beta (1 to 40) level in brain at 5 mg/kg, sc measured after 5 hrs by ELISA relative to control; format: functional; settings: route subcutaneous
[28] = tested on: Rattus norvegicus; assay: Antialzheimer activity in rat assessed as amyloid beta (1 to 40) level in plasma at 15 mg/kg, sc measured after 5 hrs by ELISA relative to control; format: functional; settings: route subcutaneous
[29] = Plasma concentration in rat at 15 mg/kg, sc after 5 hrs by LC/MS/MS analysis; format: ADME, organism-based; set-up: dose 15 mg/kg, route subcutaneous

Structure (SMILES): COc1ccc(-c2noc(C)c2C(=O)/N=C(\N)NCc2cc(Cl)cc(Cl)c2)cc1
- Ki [1]: 670 nM
- Ratio IC50 [2]: 0.8
- IC50 [3]: 1600 nM
- IC50 [4]: 3900 nM
- IC50 [5]: 3300 nM

Structure (SMILES): COc1ccc(-c2noc(C)c2C(=O)/N=C(\N)NCc2cc(C)c(NC(=O)CN(C)C)c(Cl)c2)cc1
- Ki [1]: 50 nM
- Ratio [6]: 2
- IC50 [3]: 90 nM

Structure (SMILES): COc1ccc(-c2nsc(C)c2C(=O)/N=C(\N)NCc2cc(Cl)c(NC(C)=O)c(Cl)c2)cc1
- Ki [1]: 5 nM
- Ratio [6]: 62
- Ratio IC50 [2]: > 32
- IC50 [3]: 310 nM
- IC50 [4]: 310 nM
- IC50 [5]: > 10000 nM

Structure (SMILES): COc1ccc(-c2nsc(C)c2C(=O)/N=C(\N)NCc2cc(C)c(NC(=O)CN(C)C)c(Cl)c2)cc1
- Ratio [6]: 1

Structure (SMILES): COc1ccc(-c2nsc(C)c2C(=O)/N=C(\N)NCc2cc(Cl)c(N)c(Cl)c2)cc1
- Ratio IC50 [2]: 1.7

Structure (SMILES): COc1ccc(-c2nsc(C)c2C(=O)/N=C(\N)NCc2cc(C)c(NC(=O)c3ccccc3)c(Cl)c2)cc1
- Ki [1]: 30 nM
- Ratio [6]: 13
- IC50 [3]: 430 nM

Structure (SMILES): COc1ccc(-c2noc(C)c2C(=O)/N=C(\N)NCc2cc(Cl)c(NC(=O)CN(C)C)c(Cl)c2)cc1
- Ki [1]: 50 nM
- Ratio [6]: 4
- IC50 [3]: 210 nM

Structure (SMILES): COc1ccc(-c2noc(C)c2C(=O)/N=C(\N)NCc2cc(C)c(NC(=O)C3CC3)c(Cl)c2)cc1
- Ki [1]: 20 nM
- Ratio [6]: 16
- IC50 [3]: 330 nM

Structure (SMILES): COc1ccc(-c2nsc(C)c2C(=O)/N=C(\N)NCc2cc(C)c(NC(=O)CNCc3ccccc3)c(Cl)c2)cc1
- Ratio [6]: 7

Structure (SMILES): COc1ccc(-c2nsc(C)c2C(=O)NC(N)=NCc2cc(Cl)c(NC(=O)CN3CCC3)c(Cl)c2)cc1
- Ki [1]: 4 nM
- IC50 [3]: 8 nM
- IC50 [4]: 8 nM
- IC50 [5]: 180 nM

Structure (SMILES): CCNCC(=O)Nc1c(Cl)cc(CN/C(N)=N/C(=O)c2c(-c3ccc(OC)cc3)nsc2C)cc1Cl
- Ki [1]: 10 nM
- Ratio [6]: 2
- IC50 [3]: 20 nM

Structure (SMILES): COc1ccc(-c2noc(C)c2C(=O)/N=C(\N)NCc2cc(Cl)c(NC(=O)CSC)c(Cl)c2)cc1
- Ratio [6]: 40

Structure (SMILES): CCNCC(=O)Nc1c(C)cc(CN/C(N)=N/C(=O)c2c(-c3ccc(OC)cc3)nsc2C)cc1Cl
- Ki [1]: 20 nM
- Ratio [6]: 0.5
- IC50 [3]: 10 nM

Structure (SMILES): COc1ccc(-c2noc(C)c2C(=O)/N=C(\N)NCc2cc(Cl)c(NC(=O)CS(C)(=O)=O)c(Cl)c2)cc1
- Ratio [6]: 63

Structure (SMILES): COc1ccc(-c2nsc(C)c2C(=O)/N=C(\N)NCc2cc(Cl)c(NC(=O)CN3CCC3)c(Cl)c2)cc1
- Ratio [6]: 2
- Ratio IC50 [2]: 23

Structure (SMILES): COc1ccc(-c2nsc(C)c2C(=O)/N=C(\N)NCc2cc(Cl)c(NC(=O)CN(C)C)c(Cl)c2)cc1
- Ki [1]: 20 nM
- Ratio [6]: 4
- IC50 [3]: 70 nM

Structure (SMILES): CCC(=O)Nc1c(C)cc(CN/C(N)=N/C(=O)c2c(-c3ccc(OC)cc3)noc2C)cc1Cl
- Ratio [6]: 19

Structure (SMILES): COc1ccc(-c2nsc(C)c2C(=O)/N=C(\N)NCc2cc(C)c(NC(C)=O)c(Cl)c2)cc1
- Ratio [6]: 12

Structure (SMILES): COc1ccc(-c2noc(C)c2C(=O)/N=C(\N)NCc2cc(Cl)c(NC(=O)C3CC3)c(Cl)c2)cc1
- Ki [1]: 50 nM
- Ratio [6]: 32
- IC50 [3]: 1600 nM

Structure (SMILES): COc1ccc(-c2noc(C)c2C(=O)/N=C(\N)NCc2cc(C)c(NC(=O)CCSC)c(Cl)c2)cc1
- Ratio [6]: 21

Structure (SMILES): COc1ccc(-c2nsc(C)c2C(=O)/N=C(\N)NCc2cc(C)c(NC(=O)CN3CCC3)c(Cl)c2)cc1
- Ki [1]: 5 nM
- concentration at 5 h [7]: 6640 nM
- Activity [8]: 105%
- concentration at 5 h [9]: 378 nM
- Activity [10]: 102%
- Activity [11]: 82%
- Activity [12]: 98%
- Activity [13]: 94%
- Ratio [6]: 1
- concentration at 5 h [14]: 4 nM
- Ratio IC50 [2]: 36
- Activity [15]: 4%
- inhibition [16]: inactive
- IC50 [3]: 5 nM
- concentration at 5 h [17]: 586 nM
- concentration at 5 h [18]: 39 nM
- concentration at 5 h [19]: 8 nM
- IC50 [4]: 5 nM
- concentration at 5 h [20]: 89 nM
- concentration at 5 h [21]: 320 nM
- Activity [22]: Dose-dependent effect
- IC50 [5]: 180 nM
- inhibition [23]: inactive
- Activity [24]: 18%
- inhibition [25]: inactive
- Activity [26]: Not Active
- Activity [27]: 89%
- Activity [28]: 8%
- concentration at 5 h [29]: 1170 nM

Structure (SMILES): COc1ccc(-c2nsc(C)c2C(=O)/N=C(/N)NCc2cc(Cl)c(N)c(Cl)c2)cc1
- Ki [1]: 40 nM
- IC50 [3]: 630 nM
- IC50 [4]: 1030 nM
- IC50 [5]: 1700 nM

Structure (SMILES): COc1ccc(-c2nsc(C)c2C(=O)/N=C(\N)NCc2cc(Cl)c(NC(=O)CNCc3ccccc3)c(Cl)c2)cc1
- Ratio [6]: 23

Structure (SMILES): COc1ccc(-c2noc(C)c2C(=O)NC(N)=NCc2cc(Cl)c(NC(=O)CS(C)(=O)=O)c(Cl)c2)cc1
- Ki [1]: 30 nM
- IC50 [3]: 1900 nM

Structure (SMILES): COc1ccc(-c2nsc(C)c2C(=O)NC(N)=NCc2cc(Cl)c(NC(=O)CNCc3ccccc3)c(Cl)c2)cc1
- Ki [1]: 6 nM
- IC50 [3]: 140 nM

Structure (SMILES): COc1ccc(-c2noc(C)c2C(=O)/N=C(\N)NCc2cc(C)c(NC(=O)c3ccco3)c(Cl)c2)cc1
- Ki [1]: 60 nM
- Ratio [6]: 23
- IC50 [3]: 1400 nM
